{"source": "patent US20050221285A1", "about": "“Method for identifying or screening anti-viral agents” (priority 2001, published 2005)", "tested_on": "RSV Long wild type", "experiment": "Assay for compounds active against RSV (HEp2 cells, MTT cell viability)", "details": "human respiratory syncytial virus, HEp-2", "description": "Graded concentrations of test compounds were prepared by serial dilution in 96 well tissue culture plates containing 100 μL per well of assay media (Eagles Minimal Essential Medium (MEM) supplemented with 2% foetal bovine serum and Glutamine alanyl-L-glutamine). […] 1.5×10^4 of the diluted cells were added to several individual wells of each 96 well plate which were designated uninfected control wells. The remaining cell suspension was exposed to infectious RSV by addition of sufficient virus to the suspension to yield a concentration of 0.4 plaque forming units per cell. The cell-virus suspension was mixed well by inversion and 100 μL immediately dispensed into the remaining wells of the 96 well plates. Assay plates were incubated in a 37° C. incubator for 5 days. Viral replication was quantified by determination of cell viability substantially as described by Watanabe and colleagues (Watanabe, W. et al., J. Virol. Methods, 48: 257-265, 1994). Briefly, 100 μL of 3 mg/mL MTT (3(4,5-dimethylthiazol-2-yl)-2,5-diphenyltetrazolium bromide) was added to each well and plates incubated at 37° C. in a 5% CO2 incubator for 2 hours. […] The extent of metabolism was measured via determination of absorbance using a computer-controlled microplate reader at 540 nm with a reference wavelength of 690 nm. […]"}
{"smiles": "NC(=O)c1ncn(C2O[C@H](CO)[C@@H](O)[C@H]2O)n1", "note": "(stereo partly drawn) [Ribavirin, 1-D-ribofuranosyl-1H-1,2,4-triazole-3-carboxamide]", "values": [{"measurement": "EC50", "result": 5.54, "unit": "µg/mL"}]}
